# Results published in patent US20250134825A1, “METHOD FOR PRODUCING MEDICATIONS AND VACCINES” (MSLsolutions GmbH, priority 2022, published 2025).
# Tests used:
# [1] = single substance, value given in the literature; cited from earlier work
# [2] = Solubility in solvents (2,5-dimethylisosorbide, water, polyols); conditions: temperature range 55° C. to 70° C.
# [3] = Stability of vitamin C (model substance for mRNA) in the carrier system; assay type: physicochemical; conditions: more than 15 wt. % vitamin C, with panthenol, composition of Table 16
smiles,measurement,setting,value
"CCCCCCCCCCCCCCCCCC(=O)OC[C@H](COP(=O)([O-])OCC[N+](C)(C)C)OC(=O)CCCCCCCCCCCCCCCCC [DSPC, 1,2-distearoyl-sn-glycero-3-phosphocholine]",HLB,[1],4.5
CC(C)CCC[C@@H](C)[C@H]1CC[C@H]2[C@@H]3CC=C4C[C@@H](O)CC[C@]4(C)[C@H]3CC[C@]12C [cholesterol],"solubility in 2,5-dimethylisosorbide",[2],dissolved in high concentrations
CC[C@H](/C=C/[C@@H](C)[C@H]1CC[C@H]2[C@@H]3CC=C4C[C@@H](O)CC[C@]4(C)[C@H]3CC[C@]12C)C(C)C [stigmasterol],"concentration completely dissolved in 2,5-dimethylisosorbide",[2],over 50%
"O=C1O[C@H]([C@@H](O)CO)C(O)=C1O [vitamin C, ascorbic acid]",stability in the composition or carrier system,[3],high stability
